Drawing on the NIST ThermoML archive (doi:10.1016/j.jct.2013.11.004), this text covers Glass transition temperature for two compounds.

The conditions of this data set: DTA.

Each structure is given as a SMILES string. ± gives the expanded uncertainty stated by the source.

For the compound `CCC(=O)[O-].CCn1cc[n+](C)c1` [1-ethyl-3-methylimidazolium propionate], the Glass transition temperature was -83.17 ± 4 °C.

Turning to `CCC(=O)[O-].CCCn1cc[n+](C)c1` [1-propyl-3-methylimidazolium propionate], the Glass transition temperature was -82.92 ± 4 °C.
